Assay results as given in patent US11071731B2, “Allosteric modulators of the mu opioid receptor” (Chiromics, LLC, priority 2017, dated 2021).

Legend:
mu opioid receptor (MOR) [1] = target: T1, mu opioid receptor (MOR) (Homo sapiens, UniProt P35372); experiment: PathHunter β-arrestin recruitment assay, PAM mode with EC20 endomorphin-1; format: cell-based; conditions: for β-arr Max. Resp.: maximal response for β-arrestin recruitment; for EC50: β-arrestin recruitment, read-out: β-arr. EC50
Method in brief: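 Enzyme fragment complementation read-out: β-gal ED fragment fused to receptor, EA fused to β-arrestin, recruitment restoring β-gal activity detected by chemiluminescence. EC50 and percent maximal response derived for each compound.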

mu opioid receptor (MOR) [2] = target: T1, mu opioid receptor (MOR); experiment: Hit Hunter cAMP signaling assay (adenylyl cyclase inhibition), PAM mode with EC20 endomorphin-1; format: cell-based; conditions: for EC50: cAMP EC50, adenylyl cyclase inhibition; for cAMP Max. Resp.: maximal response for adenylyl cyclase inhibition

T1 sequence (P35372 whole entry, the tested form may be a part): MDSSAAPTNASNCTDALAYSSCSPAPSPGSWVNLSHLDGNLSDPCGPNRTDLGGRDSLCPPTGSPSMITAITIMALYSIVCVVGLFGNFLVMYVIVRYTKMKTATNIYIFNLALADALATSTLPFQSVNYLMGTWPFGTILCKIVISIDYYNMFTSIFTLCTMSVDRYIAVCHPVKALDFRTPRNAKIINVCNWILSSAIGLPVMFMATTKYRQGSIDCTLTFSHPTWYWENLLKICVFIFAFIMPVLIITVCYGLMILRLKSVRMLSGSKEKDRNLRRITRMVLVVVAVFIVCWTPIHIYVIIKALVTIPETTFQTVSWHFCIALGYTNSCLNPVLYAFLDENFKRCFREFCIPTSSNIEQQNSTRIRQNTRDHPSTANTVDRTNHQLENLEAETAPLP

Row | SMILES | β-arr Max. Resp. (mu opioid receptor (MOR) [1]) | EC50 (mu opioid receptor (MOR) [1]) [nM] | EC50 (mu opioid receptor (MOR) [2]) [nM] | cAMP Max. Resp. (mu opioid receptor (MOR) [2])
1 | Fc1cnc(Cl)nc1N1CCCCC1c1ccc2ncccc2c1 (stereo not shown) [compound 326] | D (D represents a maximal response of < 40%) | < 700 | < 700 | D (D represents a maximal response of < 40%)
2 | Fc1cnc(Cl)nc1N1CCCCC1c1cc(F)c(F)c(F)c1 (stereo not shown) [compound 327] | D (D represents a maximal response of < 40%) | < 700 | < 700 | D (D represents a maximal response of < 40%)
3 | Fc1cnc(Cl)nc1N1CCCCC1c1ccnc(Cl)c1 (stereo not shown) [compound 328] | D (D represents a maximal response of < 40%) | < 700 | < 700 | D (D represents a maximal response of < 40%)
4 | Fc1cnc(Cl)nc1N1CCCCC1c1ccccn1 (stereo not shown) [compound 329] | D (D represents a maximal response of < 40%) | < 700 | < 700 | D (D represents a maximal response of < 40%)
5 | Cc1cncc(C2CCCCN2c2nc(Cl)ncc2F)c1 (stereo not shown) [compound 330] | D (D represents a maximal response of < 40%) | < 700 | < 700 | D (D represents a maximal response of < 40%)
6 | Fc1cnc(Cl)nc1N1CCCCC1c1ccc(Cl)c(Cl)c1 (stereo not shown) [compound 331] | D (D represents a maximal response of < 40%) | < 700 | < 700 | D (D represents a maximal response of < 40%)
7 | Fc1cnc(Cl)nc1N1CCCCC1c1cnccc1C(F)(F)F (stereo not shown) [compound 332] | D (D represents a maximal response of < 40%) | < 700 | < 700 | D (D represents a maximal response of < 40%)
8 | Fc1cnc(Cl)nc1N1CCCCC1c1cccc2cnnn12 (stereo not shown) [compound 333] | D (D represents a maximal response of < 40%) | < 700 | < 700 | D (D represents a maximal response of < 40%)
9 | Fc1cnc(Cl)nc1N1CCCCC1c1ccc2cncn2c1 (stereo not shown) [compound 334] | D (D represents a maximal response of < 40%) | < 700 | < 700 | D (D represents a maximal response of < 40%)
10 | Fc1cnc(Cl)nc1N1CCCCC1c1cccnc1F (stereo not shown) [compound 335] | D (D represents a maximal response of < 40%) | < 700 | < 700 | D (D represents a maximal response of < 40%)
11 | Fc1cnc(Cl)nc1N1CCCCC1c1cnc2ccccn12 (stereo not shown) [compound 336] | D (D represents a maximal response of < 40%) | < 700 | < 700 | D (D represents a maximal response of < 40%)
12 | Fc1cnc(Cl)nc1N1CCCCC1c1cnc2cccnn12 (stereo not shown) [compound 337] | D (D represents a maximal response of < 40%) | < 700 | < 700 | D (D represents a maximal response of < 40%)
13 | Fc1cnc(Cl)nc1N1CCCCC1c1cnc2cnccn12 (stereo not shown) [compound 338] | D (D represents a maximal response of < 40%) | < 700 | < 700 | D (D represents a maximal response of < 40%)
14 | Fc1cnc(Cl)nc1N1CCCCC1c1nc2ccccc2s1 (stereo not shown) [compound 340] | D (D represents a maximal response of < 40%) | < 700 | < 700 | D (D represents a maximal response of < 40%)
15 | Fc1cnc(Cl)nc1N1CCCCC1c1ccc2ncsc2c1 (stereo not shown) [compound 341] | D (D represents a maximal response of < 40%) | < 700 | < 700 | D (D represents a maximal response of < 40%)
16 | Oc1ncc(F)c(N2CCCCC2c2cccc(C(F)(F)F)c2)n1 (stereo not shown) [compound 349] | D (D represents a maximal response of < 40%) | < 700 | < 700 | D (D represents a maximal response of < 40%)
17 | Oc1ncc(F)c(N2CCCCC2c2cccc(C(F)(F)F)c2)n1 (stereo not shown) [compound 350] | D (D represents a maximal response of < 40%) | < 700 | – | D (D represents a maximal response of < 40%)
18 | Fc1c(Cl)ncnc1N1CCCCC1c1cccc(C(F)(F)F)c1 (stereo not shown) [compound 351] | D (D represents a maximal response of < 40%) | < 700 | < 700 | D (D represents a maximal response of < 40%)
19 | Fc1cnc(Cl)nc1N1CCCCC1c1cc(C(F)(F)F)c2[nH]ncc2c1 (stereo not shown) [compound 352] | D (D represents a maximal response of < 40%) | < 700 | < 700 | D (D represents a maximal response of < 40%)

Row | SMILES | β-arr Max. Resp. (mu opioid receptor (MOR) [1]) | EC50 (mu opioid receptor (MOR) [1]) [nM] | EC50 (mu opioid receptor (MOR) [2]) [nM] | cAMP Max. Resp. (mu opioid receptor (MOR) [2])
20 | Fc1ccc(C(F)(F)F)cc1C1CCCCN1c1nc(Cl)ncc1F (stereo not shown) [compound 353] | D (D represents a maximal response of < 40%) | < 700 | < 700 | D (D represents a maximal response of < 40%)
21 | Fc1cnc(Cl)nc1N1CCCCC1c1c(C(F)(F)F)ccc(F)c1Br (stereo not shown) [compound 354] | D (D represents a maximal response of < 40%) | < 700 | < 700 | D (D represents a maximal response of < 40%)
22 | Fc1cnc(Cl)nc1N1CCCCC1c1cccc(C(F)(F)F)c1F (stereo not shown) [compound 355] | D (D represents a maximal response of < 40%) | < 700 | < 700 | D (D represents a maximal response of < 40%)
23 | Oc1ncnc(N2CCCCC2c2cccc(C(F)(F)F)c2)c1F (stereo not shown) [compound 356] | D (D represents a maximal response of < 40%) | < 700 | < 700 | D (D represents a maximal response of < 40%)
24 | Fc1cnc(Cl)nc1C1CCCCN1c1nc(Cl)ncc1F (stereo not shown) [compound 357] | D (D represents a maximal response of < 40%) | < 700 | < 700 | D (D represents a maximal response of < 40%)
25 | Cc1noc(C2CCCCN2c2nc(Cl)ncc2F)n1 (stereo not shown) [compound 358] | D (D represents a maximal response of < 40%) | < 700 | < 700 | D (D represents a maximal response of < 40%)
26 | FC(F)(F)c1cccc(C2CCCCN2c2ccnc(Cl)c2)c1 (stereo not shown) [compound 359] | D (D represents a maximal response of < 40%) | < 700 | < 700 | D (D represents a maximal response of < 40%)
27 | FC(F)(F)c1cccc(C2CCCCN2c2cc(Cl)ncn2)c1 (stereo not shown) [compound 360] | D (D represents a maximal response of < 40%) | < 700 | < 700 | D (D represents a maximal response of < 40%)
28 | COc1cnc(Cl)nc1N1CCCCC1c1cccc(C(F)(F)F)c1 (stereo not shown) [compound 361] | D (D represents a maximal response of < 40%) | < 700 | < 700 | D (D represents a maximal response of < 40%)
29 | Fc1cnc(Cl)nc1N1CCCCC1c1ccccc1 (stereo not shown) [compound 362] | D (D represents a maximal response of < 40%) | < 700 | < 700 | D (D represents a maximal response of < 40%)
30 | Cc1nnc(C2CCCCN2c2nc(Cl)ncc2F)o1 (stereo not shown) [compound 363] | D (D represents a maximal response of < 40%) | < 700 | < 700 | D (D represents a maximal response of < 40%)
31 | Cc1cnc(C2CCCCN2c2nc(Cl)ncc2F)o1 (stereo not shown) [compound 364] | D (D represents a maximal response of < 40%) | < 700 | < 700 | D (D represents a maximal response of < 40%)
32 | Fc1c(C2CCCCN2c2ccnc(Cl)n2)cccc1C(F)(F)F (stereo not shown) [compound 365] | D (D represents a maximal response of < 40%) | < 700 | < 700 | D (D represents a maximal response of < 40%)
33 | Cc1coc(C2CCCCN2c2nc(Cl)ncc2F)n1 (stereo not shown) [compound 366] | D (D represents a maximal response of < 40%) | < 700 | < 700 | D (D represents a maximal response of < 40%)
34 | Fc1ncc(F)c(N2CCCCC2c2cccc(C(F)(F)F)c2)n1 (stereo not shown) [compound 368] | D (D represents a maximal response of < 40%) | < 700 | < 700 | D (D represents a maximal response of < 40%)
35 | Fc1cnc(Cl)nc1N1CCCCC1c1cccc(Cl)c1F (stereo not shown) [compound 369] | D (D represents a maximal response of < 40%) | < 700 | < 700 | D (D represents a maximal response of < 40%)
36 | Fc1cncc(C2CCCCN2c2nc(Cl)ncc2F)c1 (stereo not shown) [compound 370] | D (D represents a maximal response of < 40%) | < 700 | < 700 | D (D represents a maximal response of < 40%)
37 | Fc1cnc(Cl)nc1N1CCCCC1c1ccc2c(c1)CCO2 (stereo not shown) [compound 371] | D (D represents a maximal response of < 40%) | < 700 | < 700 | D (D represents a maximal response of < 40%)
38 | Fc1ccc(C2CCCCN2c2nc(Cl)ncc2F)nc1 (stereo not shown) [compound 372] | D (D represents a maximal response of < 40%) | < 700 | < 700 | D (D represents a maximal response of < 40%)
